# Assay results from patent US12291507B2, “Compounds and their use for the treatment of ALPHA1-antitrypsin deficiency” (CENTESSA PHARMACEUTICALS (UK) LIMITED, priority 2019, dated 2025).
# Molecular target: wild-type A1AT (M) (Homo sapiens, UniProt P01009)
# Experiment: not given
# Settings: cited from earlier work
# Sequence of wild-type A1AT (M) (P01009 25-418): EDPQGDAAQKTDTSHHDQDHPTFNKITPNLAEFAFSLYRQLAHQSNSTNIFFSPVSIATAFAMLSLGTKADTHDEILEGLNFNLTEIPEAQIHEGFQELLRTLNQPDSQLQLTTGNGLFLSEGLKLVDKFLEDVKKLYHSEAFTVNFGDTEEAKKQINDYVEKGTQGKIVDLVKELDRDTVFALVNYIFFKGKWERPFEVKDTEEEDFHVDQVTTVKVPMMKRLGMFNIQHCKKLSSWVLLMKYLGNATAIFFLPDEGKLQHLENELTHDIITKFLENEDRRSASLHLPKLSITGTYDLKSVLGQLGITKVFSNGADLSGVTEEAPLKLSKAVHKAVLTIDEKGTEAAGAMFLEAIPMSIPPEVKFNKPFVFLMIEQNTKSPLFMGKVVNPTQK
row,SMILES,binding to wild-type A1AT (M)
1,"O=S(=O)(O)c1cccc2c(-c3ccc(Nc4ccccc4)c4c(S(=O)(=O)O)cccc34)ccc(Nc3ccccc3)c12 [bis-ANS, 4,4′-dianilino-1,1′-binaphthyl-5,5′-disulfonate]",not to wild-type A1AT (M)

# Molecular target: T1, Z A1AT (Homo sapiens, UniProt P01009, E366K)
# T1 construct: expressed in transfected cells; host or cells: HEK-Z (human embryonic kidney cells stably transfected with the human Z A1AT gene)
# Experiment: A1AT cell secretion assay using HEK-Z cells
# Type: cell-based
# Settings: 300 nM, 48 h, supernatant A1AT by ELISA, read-out: Median A1AT % increase over vehicle at 300 nM
# Description: HEK-Z cells, a human embryonic kidney cell line stably transfected with the human Z A1AT gene, were plated into 96 well plates (3.0×10^5 cells/ml with 200 μl of media/well) overnight at 37° C. in a humidified atmosphere containing 5% CO2. Following incubation cells were washed with 200 μl serum-free media three times and media was replaced with treatments in quadruplicate using serum free media containing either vehicle, 10 μM suberanilohydroxamic acid (SAHA) or a compound of the invention (at concentrations of 10, 33, 100 and 333 nM) for 48 h in a 37° C. incubator in a final volume of 200 μl. At the end of the incubation step the supernatants were removed from the wells, centrifuged at 1000×g at 4° C. for 10 min and were assayed for human A1AT levels by ELISA (Human Serpin A1/α1-antitrypsin duo set ELISA, R& D Systems, DY1268) per manufacturer's instructions.
# Briefly, a 96 well plate was coated with human A1AT capture antibody overnight at room temperature (1:180 dilution from stock, 100 μl final volume/well). The capture antibody was then removed and wells washed three times with 300 μl wash buffer (0.05% Tween 20 in PBS) and then 200 μl reagent diluent ([…]) was incubated in each well for 1 h at room temperature. Diluted samples, standards (125, 250, 500, 1000, 2000, 4000 and 8000 pg/ml A1AT) or blanks were then added to each well in duplicate and the plates were covered with a plate sealer and left at room temperature for 2 h. At the end of the sample incubation step, samples were removed and all wells washed as previously and 100 μl detection antibody (1:180 dilution from stock) was added to each well and incubated for a further 2 h at room temperature. Following incubation with detection antibody, supernatant was removed and wells were washed as previously and 100 μl streptavidin-HRP solution (1:200 dilution from stock) was added to each well for 20 min in the dark. After which, 50 μl stop solution (2M H2SO4) was added and optical density (OD) of each well was read at 450 nm with 570 nm blank subtracted from each well using a microplate reader. A 4-parameter logistic curve was constructed using GraphPad Prism 7 and A1AT concentrations were determined in each sample by interpolation from a standard curve and multiplying by the appropriate dilution factor.
# T1 sequence (P01009 25-418 E366K): as the sequence (P01009 25-418) above, with E342K counted along it
row,SMILES,activation at 0.3 µM [%]
1,"CNC(=O)c1ccc(Cn2ccc(=O)[nH]c2=O)cc1 [Example 2, 4-((2,4-dioxo-3,4-dihydropyrimidin-1(2H)-yl)methyl)-N-methylbenzamide]",175
2,"CN(C)C(=O)c1ccc(Cn2ccc(=O)[nH]c2=O)cc1 [Example 1, 4-((2,4-dioxo-3,4-dihydropyrimidin-1(2H)-yl)methyl)-N,N-dimethylbenzamide]",130
3,"CC(C)NC(=O)c1ccc(Cn2ccc(=O)[nH]c2=O)cc1 [Example 3, 4-((2,4-dioxo-3,4-dihydropyrimidin-1(2H)-yl)methyl)-N-isopropylbenzamide]",190
4,"O=C(NCc1ccc(F)cc1)c1ccc(Cn2ccc(=O)[nH]c2=O)cc1 [Example 4, 4-((2,4-dioxo-3,4-dihydropyrimidin-1(2H)-yl)methyl)-N-(4-fluorobenzyl)benzamide]",170

# Now from value to compound:
row,activation at 0.3 µM [%],SMILES
1,180,"CN(CC(F)(F)F)C(=O)c1ccc(Cn2c(=O)cc[nH]c2=O)cc1 [Example 9, 4-((2,6-dioxo-3,6-dihydropyrimidin-1(2H)-yl)methyl)-N-methyl-N-(2,2,2-trifluoroethyl)benzamide]"
2,140,"CN(C)C(=O)c1ccc(Cn2c(=O)cc[nH]c2=O)cc1 [Example 5, 4-((2,6-dioxo-3,6-dihydropyrimidin-1(2H)-yl)methyl)-N,N-dimethylbenzamide]"
3,175,"CN(Cc1ccccc1)C(=O)c1ccc(Cn2c(=O)cc[nH]c2=O)cc1 [Example 8, N-benzyl-4-((2,6-dioxo-3,6-dihydropyrimidin-1(2H)-yl)methyl)-N-methylbenzamide]"
4,190,"CCN(C)C(=O)c1ccc(Cn2c(=O)cc[nH]c2=O)cc1 [Example 6, 4-((2,6-dioxo-3,6-dihydropyrimidin-1(2H)-yl)methyl)-N-ethyl-N-methylbenzamide]"
5,170,"CC(C)N(C)C(=O)c1ccc(Cn2c(=O)cc[nH]c2=O)cc1 [Example 7, 4-((2,6-dioxo-3,6-dihydropyrimidin-1(2H)-yl)methyl)-N-isopropyl-N-methylbenzamide]"
